Our source for the melting point values is US7192952B2, “Heterocyclic compounds that are inhibitors of the enzyme DPP-IV” (Novo Nordisk, A/S, priority 2001, dated 2007).

Structures can show the parent of a compound that is named as a salt.

As to `Cn1c(=O)c2c(nc(N3CC[C@H](N)C3)n2Cc2ccccc2)n(C)c1=O` (as salt: HCl) [Example 3, (S) 8-(3-Aminopyrrolidin-1-yl)-7-benzyl-1,3-dimethyl-3,7-dihydropurine-2,6-dione], the melting point lay in the range of 166 to 169 °C.
`Cn1c(=O)c2c(nc(N3CC[C@H](N)C3)n2Cc2ccccc2C#N)n(C)c1=O` (as salt: HCl) [Example 8, (S) 2-(8-(3-Aminopyrrolidin-1-yl)-1,3-dimethyl-2,6-dioxo-1,2,3,6-tetrahydropurin-7-ylmethyl)benzonitrile] displayed a melting point of 104 to 117 °C.
To `Cn1c(=O)c2c(nc(N3CC[C@H](N)C3)n2Cc2ccccc2Br)n(C)c1=O` (as salt: HCl) [Example 12, (S) 8-(3-Aminopyrrolidin-1-yl)-7-(2-bromobenzyl)-1,3-dimethyl-3,7-dihydropurine-2,6-dione] belongs 215 to 217 °C.
